The target in one test is h5-HT2B (Homo sapiens, UniProt P41595). The settings on record: cited from earlier work.
The target in another test is h5-HT7 (Homo sapiens, UniProt P34969). The following applies: cited from earlier work.
Test [1] deals with donepezil-treated patients with moderate Alzheimer's disease. The following applies: add-on to donepezil; cited from earlier work.
Another test has as its target h5-HT1B (Homo sapiens, UniProt P28222). The settings on record: cited from earlier work.
The test system of test [2] is donepezil-treated patients with moderate Alzheimer's disease. Nature of the test: LADDER study post-hoc analysis: Activities of Daily Living (ADCS-ADL) by NPI apathy score. It counts as in vivo, human. As to the method:
Patients were randomly assigned (1:1) to double-blind treatment with idalopirdine or placebo. The same patient population as in Example 3 was analysed in a post-hoc analysis. For the post-hoc analysis apathy was considered present if the apathy score as measured by Neuropsychiatric Inventory (NPI) was 1 or higher. The statistical analysis predicted a significant interaction at a 5% significance level between apathy score and treatment effect of idalopirdine on Activities of Daily Living as measured by the ADCS-ADL score (Galasko et al; An inventory to assess activities of daily living for clinical trials in Alzheimer's Disease. Alzheimer Dis Assoc Disord. 1997;11(Suppl 2):22-32) (a positive score means an improvement): […]

The target in another test is T1, h5-HT1A (Homo sapiens, UniProt P08908).
T1 sequence (P08908 1-422): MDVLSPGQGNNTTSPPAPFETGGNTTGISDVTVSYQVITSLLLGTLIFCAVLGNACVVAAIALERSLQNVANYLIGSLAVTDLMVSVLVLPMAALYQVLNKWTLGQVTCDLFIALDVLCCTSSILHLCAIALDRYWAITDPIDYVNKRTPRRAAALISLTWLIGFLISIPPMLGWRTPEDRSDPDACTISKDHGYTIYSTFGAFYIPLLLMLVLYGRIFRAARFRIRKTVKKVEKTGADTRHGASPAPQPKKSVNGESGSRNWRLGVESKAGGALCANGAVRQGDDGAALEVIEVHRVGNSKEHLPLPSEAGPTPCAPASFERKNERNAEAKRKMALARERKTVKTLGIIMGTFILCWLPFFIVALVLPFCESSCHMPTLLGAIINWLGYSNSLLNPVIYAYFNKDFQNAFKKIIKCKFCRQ
The following applies: cited from earlier work.

The test system of test [3] is donepezil-treated patients with moderate Alzheimer's disease. The settings on record: add-on to donepezil 10 mg per day, all patients; cited from earlier work.
Another test concerns the target T2, h5-HT1F (Homo sapiens, UniProt P30939).
T2 sequence (P30939 1-366): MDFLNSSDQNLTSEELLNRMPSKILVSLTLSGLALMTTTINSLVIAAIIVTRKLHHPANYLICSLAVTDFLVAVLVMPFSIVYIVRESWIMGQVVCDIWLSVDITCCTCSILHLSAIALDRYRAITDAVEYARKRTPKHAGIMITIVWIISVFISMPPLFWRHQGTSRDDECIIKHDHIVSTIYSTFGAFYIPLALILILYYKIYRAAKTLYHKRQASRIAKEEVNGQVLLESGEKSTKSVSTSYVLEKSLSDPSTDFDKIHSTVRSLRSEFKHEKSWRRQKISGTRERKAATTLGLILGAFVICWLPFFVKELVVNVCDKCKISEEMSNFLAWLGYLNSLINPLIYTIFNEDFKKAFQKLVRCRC
The settings on record: cited from earlier work.

For a further test, the target named is h5-HT1D (Homo sapiens, UniProt P28221). The settings on record: cited from earlier work.
Sequence of h5-HT1D (P28221 whole entry): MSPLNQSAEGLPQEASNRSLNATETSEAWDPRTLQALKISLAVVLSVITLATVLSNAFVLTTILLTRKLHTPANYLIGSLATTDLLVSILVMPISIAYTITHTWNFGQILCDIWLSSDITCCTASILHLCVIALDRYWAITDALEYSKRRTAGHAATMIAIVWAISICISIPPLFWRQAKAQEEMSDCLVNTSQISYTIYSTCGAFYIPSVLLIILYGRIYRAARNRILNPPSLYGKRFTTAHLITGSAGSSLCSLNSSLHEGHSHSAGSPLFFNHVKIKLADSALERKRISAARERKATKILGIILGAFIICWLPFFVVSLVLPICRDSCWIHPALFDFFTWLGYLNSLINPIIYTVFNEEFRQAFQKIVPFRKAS
The target in the next test is h5-HT1E (Homo sapiens, UniProt P28566). The following applies: cited from earlier work.
Sequence of h5-HT1E (P28566 whole entry): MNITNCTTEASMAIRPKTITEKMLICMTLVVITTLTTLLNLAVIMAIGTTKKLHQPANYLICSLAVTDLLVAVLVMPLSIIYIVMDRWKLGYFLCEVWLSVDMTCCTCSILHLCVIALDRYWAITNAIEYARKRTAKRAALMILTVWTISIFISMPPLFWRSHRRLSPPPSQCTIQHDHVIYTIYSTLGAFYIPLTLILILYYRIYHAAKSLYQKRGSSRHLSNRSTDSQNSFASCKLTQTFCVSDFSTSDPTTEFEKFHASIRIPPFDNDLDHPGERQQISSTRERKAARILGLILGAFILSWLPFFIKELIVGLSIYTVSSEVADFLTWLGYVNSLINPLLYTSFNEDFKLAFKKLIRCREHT
Test [4] relates to donepezil-treated patients with moderate Alzheimer's disease. Briefly: LADDER study: cognition (ADAS-cog) in donepezil-treated patients, incl. post-hoc analysis by NPI apathy score. It counts as in vivo, human. Here is the method:
The […] study that was conducted to assess the effect on cognitive performance of idalopirdine in donepezil-treated patients with moderate Alzheimer's disease. The […] study is registered with ClinicalTrials.gov, number NCT01019421 and is reported in Wilkinson D, et al. Safety and efficacy of idalopirdine, a 5-HT6 receptor antagonist, in patients with moderate Alzheimer's disease (LADDER): a randomised, double-blind, placebo-controlled phase 2 trial Lancet Neurol 2014; 13: 141-49. […] Patients were randomly assigned (1:1) to double-blind treatment with idalopirdine or placebo. The cognitive subscale of the 70-point, 11-item Alzheimer's Disease Assessment Scale (ADAS-cog) was rated at baseline and at weeks 4, 12, and 24. The ADAS-Cog scale is described in Rosen W G et al. A new scale for Alzheimer's disease. Am J Psychiatry 1984; 141: 1356-64. […] Subsequent to the analysis of the primary and secondary endpoints of the […] study as described in Example 2 above a post-hoc analysis was conducted. […] For the post-hoc analysis apathy was considered present if the apathy score as measured by Neuropsychiatric Inventory (NPI) was 1 or higher. The statistical analysis predicted a significant interaction at a 5% significance level between apathy score and treatment effect of idalopirdine on cognition as measured by the ADAS-Cog score (a negative score means less decline in cognitive skills and is thus desirable): […]

The next test deals with h5-HT2A (Homo sapiens, UniProt P28223). The following applies: cited from earlier work.
Sequence of h5-HT2A (P28223 whole entry): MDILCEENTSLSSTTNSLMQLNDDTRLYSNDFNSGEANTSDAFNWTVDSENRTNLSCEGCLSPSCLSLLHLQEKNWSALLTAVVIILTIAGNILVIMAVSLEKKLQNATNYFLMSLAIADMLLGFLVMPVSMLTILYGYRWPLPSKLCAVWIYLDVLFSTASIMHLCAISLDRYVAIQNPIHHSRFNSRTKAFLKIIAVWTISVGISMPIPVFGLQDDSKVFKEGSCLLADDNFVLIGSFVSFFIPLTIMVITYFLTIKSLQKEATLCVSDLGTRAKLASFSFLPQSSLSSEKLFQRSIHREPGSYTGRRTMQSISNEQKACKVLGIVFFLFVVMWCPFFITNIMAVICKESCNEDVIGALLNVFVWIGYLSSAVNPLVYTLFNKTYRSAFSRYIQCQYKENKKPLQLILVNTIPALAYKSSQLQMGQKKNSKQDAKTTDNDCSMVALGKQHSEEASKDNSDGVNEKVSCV

Molecules are shown by their SMILES. Some results are limits rather than exact numbers.

Sequence of h5-HT2B (P41595 whole entry): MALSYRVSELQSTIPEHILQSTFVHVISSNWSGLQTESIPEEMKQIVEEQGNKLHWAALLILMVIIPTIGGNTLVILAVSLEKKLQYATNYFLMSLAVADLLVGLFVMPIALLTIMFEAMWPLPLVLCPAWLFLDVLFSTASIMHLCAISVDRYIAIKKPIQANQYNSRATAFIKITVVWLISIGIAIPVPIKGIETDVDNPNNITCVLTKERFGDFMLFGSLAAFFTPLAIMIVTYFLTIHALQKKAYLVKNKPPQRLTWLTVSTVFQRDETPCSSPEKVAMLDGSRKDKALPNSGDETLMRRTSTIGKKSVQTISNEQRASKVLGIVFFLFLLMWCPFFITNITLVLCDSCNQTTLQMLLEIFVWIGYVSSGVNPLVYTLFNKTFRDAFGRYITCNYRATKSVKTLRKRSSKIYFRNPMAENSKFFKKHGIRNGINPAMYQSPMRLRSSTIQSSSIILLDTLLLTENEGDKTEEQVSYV
Sequence of h5-HT1B (P28222 whole entry): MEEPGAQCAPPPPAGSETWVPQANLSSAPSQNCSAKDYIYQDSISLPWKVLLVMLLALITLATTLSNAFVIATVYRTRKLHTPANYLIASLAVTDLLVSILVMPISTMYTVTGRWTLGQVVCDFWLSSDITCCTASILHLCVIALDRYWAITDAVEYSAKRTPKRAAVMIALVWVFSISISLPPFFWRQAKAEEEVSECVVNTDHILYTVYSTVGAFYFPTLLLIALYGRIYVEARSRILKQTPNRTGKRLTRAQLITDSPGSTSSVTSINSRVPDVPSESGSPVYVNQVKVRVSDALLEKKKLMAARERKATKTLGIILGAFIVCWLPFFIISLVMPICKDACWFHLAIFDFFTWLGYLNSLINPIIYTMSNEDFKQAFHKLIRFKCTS
Sequence of h5-HT7 (P34969 whole entry): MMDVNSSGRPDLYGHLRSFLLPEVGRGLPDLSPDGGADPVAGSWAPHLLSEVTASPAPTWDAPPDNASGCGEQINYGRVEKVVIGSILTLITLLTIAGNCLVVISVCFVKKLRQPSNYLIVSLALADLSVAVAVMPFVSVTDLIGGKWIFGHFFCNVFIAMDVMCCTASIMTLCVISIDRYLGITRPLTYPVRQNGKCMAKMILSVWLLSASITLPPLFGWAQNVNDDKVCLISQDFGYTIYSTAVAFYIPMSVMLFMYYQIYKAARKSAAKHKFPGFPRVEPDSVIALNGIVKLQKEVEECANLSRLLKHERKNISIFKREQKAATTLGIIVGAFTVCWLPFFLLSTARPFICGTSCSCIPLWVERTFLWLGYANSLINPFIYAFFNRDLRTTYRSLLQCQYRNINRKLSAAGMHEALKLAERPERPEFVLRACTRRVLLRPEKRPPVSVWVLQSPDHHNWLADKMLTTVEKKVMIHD

With `Fc1ccc2c(CCNCc3cccc(OCC(F)(F)C(F)F)c3)c[nH]c2c1` [idalopirdine, N-(2-(6-fluoro-1H-indol-3-yl)ethyl)-3-(2,2,3,3-tetrafluoropropoxy)-benzylamine], the Ki (usually a measure of affinity in units of concentration, obtained from inhibition or displacement) was above 4100 nM at h5-HT2B; above 10000 nM at h5-HT7; above 10000 nM on h5-HT1B; 2300 nM at h5-HT1A; 2400 nM on h5-HT1F; 2600 nM at h5-HT1D. Further, the Ki was above 4600 nM on h5-HT1E and 83 nM at h5-HT2A. Further, the “Effects on pre-specified secondary efficacy endpoints at week 24” value in [1] is given as “None of the effects of idalopirdine on the pre-specified secondary endpoints were statistically significant”. The “Estimated change in effect on ADL at week 24 per unit increase in NPI apathy item score (Estimate)” value in test [2] (ADCS-ADL score, positive = improvement, add-on to donepezil) is recorded as 0.92. Besides, the “Effect on ADL at week 24 in patients without apathy (Estimate)” value in test [2] (ADCS-ADL, NPI apathy score 0, add-on to donepezil) was 0.39. Moreover, the “Effect on ADL at week 24 in patients with apathy (Estimate)” value in [2] (ADCS-ADL, NPI apathy score 1 or higher, add-on to donepezil) is 2.89. Besides, the “Change from baseline in the ADAS-cog at week 24 (primary endpoint) versus placebo” value in [3] is on record as “significantly better with idalopirdine than with placebo”. Besides, the “Estimated change in effect on cognition at week 24 per unit increase in NPI apathy item score (Estimate)” value in test [4] (ADAS-Cog score, negative = less decline, add-on to donepezil) is −0.64. The “Effect on cognition at week 24 in patients without apathy (Estimate)” value in test [4] (ADAS-Cog, NPI apathy score 0, add-on to donepezil) is −0.81. The “Effect on cognition at week 24 in patients with apathy (Estimate)” value in test [4] (ADAS-Cog, NPI apathy score 1 or higher, add-on to donepezil) is −3.8.

These data come from US10864191B2, “5-HT6 receptor antagonists for use in the treatment of Alzheimer's disease with apathy as comorbidity” (H. Lundbeck A/S, priority 2016, dated 2020).
